Tests used:
AR / CBP ternary complex = assay: Ternary complex formation assay (sandwich ELISA, AR capture / CBP detection) in VCaP cell lysates; type: cell-based; conditions: 1.5 hours treatment, sandwich ELISA (AR capture, CBP or p300 detection)
Method in brief: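 Anti-AR (AR 441)-coated plates capture AR from lysates of VCaP cells grown ≥3 days at 50K/well in 5% charcoal-stripped FBS, dosed with bifunctional for 1.5 h and lysed 30 min at 4 °C. Co-captured CBP/p300 is probed with rabbit mAb and HRP anti-rabbit, then QuantaRed fluorescence (570/585) is read at 0, 5 and 15 min.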

VCaP cells = assay: VCaP growth inhibition assay; type: cell-based; conditions: 30 pM R1881, 9 days, CTG
Method in brief: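 Growth read by CTG luminescence after 9-day exposure to compound (final 100 nM–10 fM, 1:5 steps) plus 30 pM R1881, in phenol red-free DMEM with 5% CSS. Cells pre-incubated 72 h before dosing; IC50 by nonlinear 4-parameter regression.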

Structure (SMILES) | EC50 (AR / CBP ternary complex) [nM] | IC50 (VCaP cells) [nM]
CC(=O)N1CCc2c(c(-c3cccc4cc(-c5cnn(CCC6CCN(c7ncc(C(=O)NC8C(C)(C)C(Oc9ccc(C#N)c(Cl)c9)C8(C)C)cn7)CC6)c5)ncc34)nn2C2CCOCC2)C1 (stereo not drawn) [Compound 139, 2-[4-[2-[4-[8-(5-acetyl-1-tetrahydropyran-4-yl-6,7-dihydro-4H-pyrazolo[4,3-c]pyridin-3-yl)-3-isoquinolyl]pyrazol-1-yl]ethyl]-1-piperidyl]-N-[3-(3-chloro-4-cyano-phenoxy)-2,2,4,4-tetramethyl-cyclobutyl]pyrimidine-5-carboxamide] | > 100 | ≤ 0.1
CC(=O)N1CCc2c(c(-c3cccc4cc(-c5ccc(C(=O)NCCOCc6ncc(C(=O)NC7C(C)(C)C(Oc8ccc(C#N)c(Cl)c8)C7(C)C)cn6)nc5)ncc34)nn2C2CCOCC2)C1 (stereo not drawn) [Compound 76, 2-[2-[[5-[8-(5-acetyl-1-tetrahydropyran-4-yl-6,7-dihydro-4H-pyrazolo[4,3-c]pyridin-3-yl)-3-isoquinolyl]pyridine-2-carbonyl]amino]ethoxymethyl]-N-[3-(3-chloro-4-cyano-phenoxy)-2,2,4,4-tetramethyl-cyclobutyl]pyrimidine-5-carboxamide] | < 1 | ≤ 0.1
COc1cc(OC2C(C)(C)C(NC(=O)c3ccc(N4CCN(CCc5ccc(-c6cc7c(cn6)N(c6nn(C8CCOCC8)c8c6CN(C(C)=O)CC8)CCC7)cn5)CC4)cc3)C2(C)C)ccc1C#N (stereo not drawn) [Compound 251, 4-[4-[2-[5-[1-(5-acetyl-1-tetrahydropyran-4-yl-6,7-dihydro-4H-pyrazolo[4,3-c]pyridin-3-yl)-3,4-dihydro-2H-1,7-naphthyridin-6-yl]-2-pyridyl]ethyl]piperazin-1-yl]-N-[3-(4-cyano-3-methoxy-phenoxy)-2,2,4,4-tetramethyl-cyclobutyl]benzamide] | < 1 | 0.1 to 1
CC(=O)N1CCc2c(c(N3CCCc4cc(-c5cnn(C)c5)c(Cl)cc43)nn2C2CCN(CC3CCN(c4ncc(C(=O)NC5C(C)(C)C(Oc6ccc(C#N)c(Cl)c6)C5(C)C)cn4)CC3)CC2)C1 (stereo not drawn) [Compound 25, 2-[4-[[4-[5-acetyl-3-[7-chloro-6-(1-methylpyrazol-4-yl)-3,4-dihydro-2H-quinolin-1-yl]-6,7-dihydro-4H-pyrazolo[4,3-c]pyridin-1-yl]-1-piperidyl]methyl]-1-piperidyl]-N-[3-(3-chloro-4-cyano-phenoxy)-2,2,4,4-tetramethyl-cyclobutyl]pyrimidine-5-carboxamide] | 1 to 10 | 0.1 to 1
CC(=O)N1CCc2c(c(N3CCCc4cc(-c5cnn(C)c5)c(C(F)F)cc43)nn2C2CCN(Cc3cn(CCc4ncc(C(=O)NC5C(C)(C)C(Oc6ccc(C#N)c(Cl)c6)C5(C)C)cn4)nn3)CC2)C1 (stereo not drawn) [Compound 15, 2-[2-[4-[[4-[5-acetyl-3-[7-(difluoromethyl)-6-(1-methylpyrazol-4-yl)-3,4-dihydro-2H-quinolin-1-yl]-6,7-dihydro-4H-pyrazolo[4,3-c]pyridin-1-yl]-1-piperidyl]methyl]triazol-1-yl]ethyl]-N-[3-(3-chloro-4-cyano-phenoxy)-2,2,4,4-tetramethyl-cyclobutyl]pyrimidine-5-carboxamide] | 10 to 100 | > 100
COc1cc(OC2C(C)(C)C(NC(=O)c3ccc(C#CC4CCC(N5CCC(n6nc(N7CCCc8cc(-c9cnn(C)c9)c(C(F)F)cc87)c7c6CCN(C(C)=O)C7)CC5)CC4)cc3)C2(C)C)ccc1C#N (stereo not drawn) [Compound 292, 4-[2-[4-[4-[5-acetyl-3-[7-(difluoromethyl)-6-(1-methylpyrazol-4-yl)-3,4-dihydro-2H-quinolin-1-yl]-6,7-dihydro-4H-pyrazolo[4,3-c]pyridin-1-yl]-1-piperidyl]cyclohexyl]ethynyl]-N-[3-(4-cyano-3-methoxy-phenoxy)-2,2,4,4-tetramethyl-cyclobutyl]benzamide] | < 1 | 0.1 to 1
CC(=O)N1CCc2c(c(-c3cccc4cc(-c5ccc(C(=O)NCCC6CCN(c7ncc(C(=O)NC8C(C)(C)C(Oc9ccc(C#N)c(Cl)c9)C8(C)C)cn7)CC6)nc5)ncc34)nn2C2CCOCC2)C1 (stereo not drawn) [Compound 179, 2-[4-[2-[[5-[8-(5-acetyl-1-tetrahydropyran-4-yl-6,7-dihydro-4H-pyrazolo[4,3-c]pyridin-3-yl)-3-isoquinolyl]pyridine-2-carbonyl]amino]ethyl]-1-piperidyl]-N-[3-(3-chloro-4-cyano-phenoxy)-2,2,4,4-tetramethyl-cyclobutyl]pyrimidine-5-carboxamide] | < 1 | 0.1 to 1
COc1cc(OC2C(C)(C)C(NC(=O)c3ccc(N4CC[C@H](N5CCC(n6nc(N7CCCc8cc(-c9cnn(C)c9)c(C(F)F)cc87)c7c6CCN(C(C)=O)C7)CC5)C4)cc3)C2(C)C)ccc1C#N (stereo partly drawn) [Compound 336, 4-[(3S)-3-[4-[5-acetyl-3-[7-(difluoromethyl)-6-(1-methylpyrazol-4-yl)-3,4-dihydro-2H-quinolin-1-yl]-6,7-dihydro-4H-pyrazolo[4,3-c]pyridin-1-yl]-1-piperidyl]pyrrolidin-1-yl]-N-[3-(4-cyano-3-methoxy-phenoxy)-2,2,4,4-tetramethyl-cyclobutyl]benzamide] | < 1 | 1 to 100
CC(=O)N1CCc2c(c(N3CCCc4cc(-c5cnn(C)c5)c(C(F)F)cc43)nn2C2CCN(Cc3cn(Cc4ncc(C(=O)NC5C(C)(C)C(Oc6ccc(C#N)c(Cl)c6)C5(C)C)cn4)nn3)CC2)C1 (stereo not drawn) [Compound 188, 2-[[4-[[4-[5-acetyl-3-[7-(difluoromethyl)-6-(1-methylpyrazol-4-yl)-3,4-dihydro-2H-quinolin-1-yl]-6,7-dihydro-4H-pyrazolo[4,3-c]pyridin-1-yl]-1-piperidyl]methyl]triazol-1-yl]methyl]-N-[3-(3-chloro-4-cyano-phenoxy)-2,2,4,4-tetramethyl-cyclobutyl]pyrimidine-5-carboxamide] | < 1 | ≤ 0.1
COc1cc(OC2C(C)(C)C(NC(=O)c3ccc(N4CC(N5CCC6(CCC(n7nc(N8CCCc9cc(-c%10cnn(C)c%10)c(C(F)F)cc98)c8c7CCN(C(C)=O)C8)CC6)C5)C4)cc3)C2(C)C)ccc1C#N (stereo not drawn) [Compound 402, 4-[3-[8-[5-acetyl-3-[7-(difluoromethyl)-6-(1-methylpyrazol-4-yl)-3,4-dihydro-2H-quinolin-1-yl]-6,7-dihydro-4Hpyrazolo[4,3-c]pyridin-1-yl]-2-azaspiro[4.5]decan-2-yl]azetidin-1-yl]-N-[3-(4-cyano-3-methoxy-phenoxy)-2,2,4,4-tetramethyl-cyclobutyl]benzamide] | < 1 | ≤ 0.1
CC(=O)N1CCc2c(c(-c3cccc4cc(-c5cnn(CC6CCN(c7ncc(C(=O)NC8C(C)(C)C(Oc9ccc(C#N)c(Cl)c9)C8(C)C)cn7)CC6)c5)ncc34)nn2C)C1 (stereo not drawn) [Compound 215, 2-[4-[[4-[8-(5-acetyl-1-methyl-6,7-dihydro-4H-pyrazolo[4,3-c]pyridin-3-yl)-3-isoquinolyl]pyrazol-1-yl]methyl]-1-piperidyl]-N-[3-(3-chloro-4-cyano-phenoxy)-2,2,4,4-tetramethyl-cyclobutyl]pyrimidine-5-carboxamide] | < 1 | 0.1 to 1
CC(=O)N1CCc2c(c(N3CCCc4cc(-c5cnn(C)c5)c(C(F)F)cc43)nn2C2CCN(CC3C(C)CN(c4ncc(C(=O)NC5C(C)(C)C(Oc6ccc(C#N)c(C)c6C)C5(C)C)cn4)CC3C)CC2)C1 (stereo not drawn) [Compound 461, 2-[4-[[4-[5-acetyl-3-[7-(difluoromethyl)-6-(1-methylpyrazol-4-yl)-3,4-dihydro-2H-quinolin-1-yl]-6,7-dihydro-4H-pyrazolo[4,3-c]pyridin-1-yl]-1-piperidyl]methyl]-3,5-dimethyl-1-piperidyl]-N-[3-(4-cyano-2,3-dimethyl-phenoxy)-2,2,4,4-tetramethyl-cyclobutyl]pyrimidine-5-carboxamide] | < 1 | ≤ 0.1
COc1cc(OC2C(C)(C)C(NC(=O)c3ccc(N4CCC(C(=O)N5CCC(n6nc(-c7cccc8cc(C9CC9)ncc78)c7c6CCN(C(C)=O)C7)CC5)CC4)cc3)C2(C)C)ccc1C#N (stereo not drawn) [Compound 256, 4-[4-[4-[5-acetyl-3-(3-cyclopropyl-8-isoquinolyl)-6,7-dihydro-4H-pyrazolo[4,3-c]pyridin-1-yl]piperidine-1-carbonyl]-1-piperidyl]-N-[3-(4-cyano-3-methoxy-phenoxy)-2,2,4,4-tetramethyl-cyclobutyl]benzamide] | < 1 | 0.1 to 1
COc1cc(OC2C(C)(C)C(NC(=O)c3ccc(N4CC(OC5CCC(n6nc(N7CCCc8cc(-c9cnn(C)c9)c(C(F)F)cc87)c7c6CCN(C(C)=O)C7)CC5)C4)cc3)C2(C)C)ccc1C#N (stereo not drawn) [Compound 343, 4-[3-[4-[5-acetyl-3-[7-(difluoromethyl)-6-(1-methylpyrazol-4-yl)-3,4-dihydro-2H-quinolin-1-yl]-6,7-dihydro-4H-pyrazolo[4,3-c]pyridin-1-yl]cyclohexoxy]azetidin-1-yl]-N-[3-(4-cyano-3-methoxy-phenoxy)-2,2,4,4-tetramethyl-cyclobutyl]benzamide] | < 1 | 0.1 to 1
CC(=O)N1CCc2c(c(N3CCCc4cc(-c5cnn(C)c5)c(C(F)F)cc43)nn2C2CCN(C3CCC(C#Cc4ncc(C(=O)NC5C(C)(C)C(Oc6ccc(C#N)c(Cl)c6)C5(C)C)cn4)CC3)CC2)C1 (stereo not drawn) [Compound 293, 2-[2-[4-[4-[5-acetyl-3-[7-(difluoromethyl)-6-(1-methylpyrazol-4-yl)-3,4-dihydro-2H-quinolin-1-yl]-6,7-dihydro-4H-pyrazolo[4,3-c]pyridin-1-yl]-1-piperidyl]cyclohexyl]ethynyl]-N-[3-(3-chloro-4-cyano-phenoxy)-2,2,4,4-tetramethyl-cyclobutyl]pyrimidine-5-carboxamide] | < 1 | 0.1 to 1
